Laboratory results: US7781565B2 (priority 2006, dated 2010)
“Also recorded” adds a separate entry of the source.

Tested on: NCI-60 cell lines
Type: cell-based, human

HGGSNDR
Cell Line the peptide is associated with (peptide recovered from phage library selection on this NCI-60 cell line): A498 Renal

CRGSIGA
Cell Line the peptide is associated with (peptide recovered from phage library selection on this NCI-60 cell line): BT-549 Breast

ERVSAAV
Cell Line (NCI-60 cell line the peptide and its motif are associated with): OVCAR-3 Ovarian

MERVAGR
Cell Line the peptide is associated with (peptide recovered from phage library selection on this NCI-60 cell line): SN12C Renal

DVHARGD
Cell Line the peptide is associated with (peptide recovered from phage library selection on this NCI-60 cell line): NCI/ADR-RES Breast

GGPGLVM
Cell Line (NCI-60 cell line the peptide and its motif are associated with): OVCAR-4 Ovarian

LLLRSGG
Cell Line with which the peptide (and its tripeptide motif) is associated: RPMI-8226-Leukemia

AAVFVRS
Cell Line with which the peptide (and its tripeptide motif) is associated: K-562-Leukemia

HPSMGGR
Cell Line with which the peptide (and its tripeptide motif) is associated: Hop-62-Lung

GVRPFPR
Cell Line with which the peptide (and its tripeptide motif) is associated: Hop-62-Lung

TQYYGSS
Cell Line (NCI-60 cell line the peptide is associated with): SNB-19 CNS; also recorded: SF-539 CNS

YSGSSDF
Cell Line (NCI-60 cell line the peptide is associated with): COLO-205-Colon

RGGLPRG
Cell Line (NCI-60 cell line the peptide is associated with): HCT-15 Colon

GGRPTVT
Cell Line the peptide is associated with (peptide recovered from phage library selection on this NCI-60 cell line): HS 578 T Breast

FEGGRSG
Cell Line (NCI-60 cell line the peptide and its motif are associated with): M14 Melanoma

AAKTLLS
Cell Line (NCI-60 cell line the peptide is associated with): SW620-Colon

MVLRGSY
Cell Line (NCI-60 cell line the peptide is associated with): SNB-75 CNS

ANGVLEL
Cell Line with which the peptide (and its tripeptide motif) is associated: Molt-4-Leukemia

DTLRSQW
Cell Line (NCI-60 cell line the peptide is associated with): HCT-15 Colon

ERARGYP
Cell Line with which the peptide (and its tripeptide motif) is associated: SR Leukemia

GSSLSRP
Cell Line the peptide is associated with (peptide recovered from phage library selection on this NCI-60 cell line): RXF393 Renal

SAAGLAR
Cell Line (NCI-60 cell line the peptide and its motif are associated with): SK-OV-3-3 Ovarian

LPGRLRV
Cell Line (NCI-60 cell line the peptide and its motif are associated with): OVCAR-5 Ovarian

RLRSYVA
Cell Line (NCI-60 cell line the peptide and its motif are associated with): 786-0 Renal

TRSSLTH
Cell Line the peptide is associated with (peptide recovered from phage library selection on this NCI-60 cell line): TK-10 Renal

AKLGSVY
Cell Line with which the peptide (and its tripeptide motif) is associated: H226-Lung

RYGVGGL
Cell Line (NCI-60 cell line the peptide is associated with): HT-29 Colon

CTAGSVS
Cell Line (NCI-60 cell line the peptide and its motif are associated with): IGROV1 Ovarian

GLGGWVA
Cell Line with which the peptide (and its tripeptide motif) is associated: H226-Lung

GVLSDRS
Cell Line (NCI-60 cell line the peptide and its motif are associated with): SK-MEL-2 Melanoma

RERGAVQ
Cell Line with which the peptide (and its tripeptide motif) is associated: CCRF-CEM Leukemia

DNCERGV
Cell Line (NCI-60 cell line the peptide and its motif are associated with): UACC62 Melanoma

TGFGAVG
Cell Line with which the peptide (and its tripeptide motif) is associated: HL-60-Leukemia

VWLRGST
Cell Line (NCI-60 cell line the peptide and its motif are associated with): M14 Melanoma

GRRVSLV
Cell Line with which the peptide (and its tripeptide motif) is associated: SR Leukemia

NLRGSRS
Cell Line (NCI-60 cell line the peptide and its motif are associated with): SK-MEL-2 Melanoma

GTHSGLR
Cell Line (NCI-60 cell line the peptide and its motif are associated with): SK-MEL-2 Melanoma

RQKCGGL
Cell Line (NCI-60 cell line the peptide is associated with): HT-29 Colon

EQLSGVR
Cell Line with which the peptide (and its tripeptide motif) is associated: CCRF-CEM Leukemia

RPKLRSV
Cell Line (NCI-60 cell line the peptide is associated with): MALME-3M Melanoma

LIGGRNA
Cell Line (NCI-60 cell line the peptide is associated with): HCT-116 Colon

RGSFGLG
Cell Line the peptide is associated with (peptide recovered from phage library selection on this NCI-60 cell line): T-47D Breast

WQVSGVR
Cell Line (NCI-60 cell line the peptide is associated with): KM-12C Colon

LYVDASL
Cell Line the peptide is associated with (peptide recovered from phage library selection on this NCI-60 cell line): MDA-MB-435-Breast

SEQRGGL
Cell Line the peptide is associated with (peptide recovered from phage library selection on this NCI-60 cell line): ACHN Renal

RLSWTVL
Cell Line (NCI-60 cell line the peptide and its motif are associated with): PC3 Prostate

LVSYSAV
Cell Line the peptide is associated with (peptide recovered from phage library selection on this NCI-60 cell line): RXF393 Renal

GYSRASD
Cell Line (NCI-60 cell line the peptide is associated with): HT-29 Colon

DTPAGRL
Cell Line the peptide is associated with (peptide recovered from phage library selection on this NCI-60 cell line): MDA-MB-231 Breast

AAIVGVS
Cell Line the peptide is associated with (peptide recovered from phage library selection on this NCI-60 cell line): MDA-MB-231 Breast

YRVSSGS
Cell Line (NCI-60 cell line the peptide is associated with): SNB-75 CNS

GSMHRVS
Cell Line (NCI-60 cell line the peptide is associated with): SF-295 CNS

THVGGVR
Cell Line (NCI-60 cell line the peptide and its motif are associated with): OVCAR-8 Ovarian

AGATRGS
Cell Line the peptide is associated with (peptide recovered from phage library selection on this NCI-60 cell line): HS 578 T Breast

DGPSCVI
Cell Line (NCI-60 cell line the peptide and its motif are associated with): UACC62 Melanoma

SWRPLVS
Cell Line with which the peptide (and its tripeptide motif) is associated: Hop-62-Lung

GGLSECV
Cell Line with which the peptide (and its tripeptide motif) is associated: H226-Lung

GRLWYVA
Cell Line (NCI-60 cell line the peptide and its motif are associated with): DU-145 Prostate

PRLSDKS
Cell Line (NCI-60 cell line the peptide and its motif are associated with): SK-MEL-28 Melanoma

SGSVVQR
Cell Line (NCI-60 cell line the peptide is associated with): LOX-IMVI Melanoma

RVSNEAL
Cell Line (NCI-60 cell line the peptide and its motif are associated with): SK-OV-3-3 Ovarian

GTLGGRV
Cell Line (NCI-60 cell line the peptide is associated with): HT-29 Colon

TAAGSSF
Cell Line the peptide is associated with (peptide recovered from phage library selection on this NCI-60 cell line): HS 578 T Breast

GGVSPVD
Cell Line with which the peptide (and its tripeptide motif) is associated: A549-Lung

GVLPVVT
Cell Line (NCI-60 cell line the peptide is associated with): HCT-15 Colon

RWLSLLS
Cell Line (NCI-60 cell line the peptide is associated with): MALME-3M Melanoma

VGSVSVN
Cell Line with which the peptide (and its tripeptide motif) is associated: A549-Lung

GRLRASL
Cell Line (NCI-60 cell line the peptide is associated with): SF-295 CNS

ARNAASP
Cell Line with which the peptide (and its tripeptide motif) is associated: A549-Lung

DGLVPVA
Cell Line (NCI-60 cell line the peptide and its motif are associated with): IGROV1 Ovarian

LLSRRVG
Cell Line (NCI-60 cell line the peptide is associated with): SNB-75 CNS

RRLSYFH
Cell Line (NCI-60 cell line the peptide is associated with): HT-29 Colon

LRSYAWS
Cell Line (NCI-60 cell line the peptide is associated with): SNB-19 CNS; also recorded: SF-539 CNS

GDATLVS
Cell Line (NCI-60 cell line the peptide and its motif are associated with): 786-0 Renal

WGWRASS
Cell Line with which the peptide (and its tripeptide motif) is associated: A549-Lung

GLGALRW
Cell Line the peptide is associated with (peptide recovered from phage library selection on this NCI-60 cell line): NCI/ADR-RES Breast

AFFMGLR
Cell Line the peptide is associated with (peptide recovered from phage library selection on this NCI-60 cell line): ACHN Renal

AGSLSVF
Cell Line with which the peptide (and its tripeptide motif) is associated: CCRF-CEM Leukemia

ASVRAGR
Cell Line with which the peptide (and its tripeptide motif) is associated: Molt-4-Leukemia

GVSKVRA
Cell Line with which the peptide (and its tripeptide motif) is associated: A549-Lung

SHRVSDS
Cell Line with which the peptide (and its tripeptide motif) is associated: K-562-Leukemia

ESATGVS
Cell Line the peptide is associated with (peptide recovered from phage library selection on this NCI-60 cell line): MDA-MB-231 Breast
